Data from patent US20250122174A1 (Shenzhen Yuanli Shenwan Innovative Medicine Co., Ltd., priority 2022, published 2025).

Each compound was assayed against HPK1 (Homo sapiens (Human), UniProt Q92918) (assay: HPK1 Inhibition Assay (ADP-Glo kinase assay)). Details: ATP 10 μM.
Assay type: biochemical
Outline: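 ADP-Glo luminescence read-out after 1 h room-temperature kinase reaction with 10 μM ATP and 0.1 μg/ml MBP. Recombinant human HPK1 at 7.5 ng/μl; buffer 40 mM Tris pH 7.5, 20 mM MgCl2. Compounds serially diluted 5-fold over 10 points from 10 mM DMSO stock.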

Sequence of HPK1 (Q92918 1-346 limits assumed): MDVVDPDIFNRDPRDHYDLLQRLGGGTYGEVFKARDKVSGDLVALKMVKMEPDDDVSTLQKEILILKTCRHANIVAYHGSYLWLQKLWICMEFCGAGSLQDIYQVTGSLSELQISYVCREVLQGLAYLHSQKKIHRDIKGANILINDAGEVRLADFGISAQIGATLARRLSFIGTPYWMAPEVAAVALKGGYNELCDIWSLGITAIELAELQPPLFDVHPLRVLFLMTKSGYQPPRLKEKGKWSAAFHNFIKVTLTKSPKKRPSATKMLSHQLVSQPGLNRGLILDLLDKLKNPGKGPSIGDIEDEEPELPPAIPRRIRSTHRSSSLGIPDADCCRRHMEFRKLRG

IC50, < 100 nM:
CC(C)n1ncc2c(N3CC[C@H](N)C3)c(NC(=O)c3ccc(=O)n(-c4c(F)cccc4F)n3)ccc21 [Example 207, (S)-N-(4-(3-aminopyrrolidin-1-yl)-1-isopropyl-1H-indazol-5-yl)-1-(2,6-difluorophenyl)-6-oxo-1,6-dihydropyridazine-3-carboxamide]
CC(C)n1ncc2c(N3CC[C@@](C)(N)C3)c(NC(=O)c3ccc(=O)n(-c4c(F)cccc4F)n3)ccc21 [Example 208, (R)-N-(4-(3-amino-3-methylpyrrolidin-1-yl)-1-isopropyl-1H-indazol-5-yl)-1-(2,6-difluorophenyl)-6-oxo-1,6-dihydropyridazine-3-carboxamide]
CC(C)n1ncc2c(N3C[C@H](C)[C@@H](N)C3)c(NC(=O)c3ccc(=O)n(-c4c(F)cccc4F)n3)ccc21 [Example 209, N-(4-((3R,4S)-3-amino-4-methylpyrrolidin-1-yl)-1-isopropyl-1H-indazol-5-yl)-1-(2,6-difluorophenyl)-6-oxo-1,6-dihydropyridazine-3-carboxamide]
CC(C)n1ncc2c(N3C[C@@H]4[C@@H](N)[C@@H]4C3)c(NC(=O)c3ccc(=O)n(-c4c(F)cccc4F)n3)ccc21 [Example 211, N-(4-((1R,5S,6s)-6-amino-3-azabicyclo[3.1.0]hexan-3-yl)-1-isopropyl-1H-indazol-5-yl)-1-(2,6-difluorophenyl)-6-oxo-1,6-dihydropyridazine-3-carboxamide]
CC(C)n1ncc2c(N3C[C@@H](N)C[C@H]3CO)c(NC(=O)c3ccc(=O)n(-c4c(F)cccc4F)n3)ccc21 [Example 212, N-(4-((25,4S)-4-amino-2-(hydroxymethyl)pyrrolidin-1-yl)-1-isopropyl-1H-indazol-5-yl)-1-(2,6-difluorophenyl)-6-oxo-1,6-dihydropyridazine-3-carboxamide]
CC(C)n1ncc2c(N3CC[C@@H](NCCO)C3)c(NC(=O)c3ccc(=O)n(-c4c(F)cccc4F)n3)ccc21 [Example 213, (R)-1-(2,6-difluorophenyl)-N-(4-(3-((2-hydroxyethyl)amino)pyrrolidin-1-yl)-1-isopropyl-1H-indazol-5-yl)-6-oxo-1,6-dihydropyridazine-3-carboxamide]
CC(C)n1ncc2c(N3C[C@@H](C)[C@@H](NCCO)C3)c(NC(=O)c3ccc(=O)n(-c4c(F)cccc4F)n3)ccc21 [Example 214, 1-(2,6-difluorophenyl)-N-(4-((3R,4R)-3-((2-hydroxyethyl)amino)-4-methylpyrrolidin-1-yl)-1-isopropyl-1H-indazol-5-yl)-6-oxo-1,6-dihydropyridazine-3-carboxamide]
CC(C)n1ncc2c(N3C[C@@H](C)[C@@H](N)C3)c(NC(=O)c3ccc(=O)n(-c4ccccc4F)n3)ccc21 [Example 215, N-(4-((3R,4R)-3-amino-4-methylpyrrolidin-1-yl)-1-isopropyl-1H-indazol-5-yl)-1-(2-fluorophenyl)-6-oxo-1,6-dihydropyridazine-3-carboxamide]
CC[C@@H]1CN(c2c(NC(=O)c3ccc(=O)n(-c4c(F)cccc4F)n3)cc(F)c3c2cnn3C(C)C)C[C@@H]1N [Example 216, N-(4-((3R,4R)-3-amino-4-ethylpyrrolidin-1-yl)-7-fluoro-1-isopropyl-1H-indazol-5-yl)-1-(2,6-difluorophenyl)-6-oxo-1,6-dihydropyridazine-3-carboxamide]
CC(C)n1ncc2c(N3CCC(N)CC3)c(NC(=O)c3ccc(=O)n(-c4c(F)cccc4F)n3)cc(F)c21 [Example 217, N-(4-(4-aminopiperidin-1-yl)-7-fluoro-1-isopropyl-1H-indazol-5-yl)-1-(2,6-difluorophenyl)-6-oxo-1,6-dihydropyridazine-3-carboxamide]
Cc1nn(C(C)C)c2c(F)cc(NC(=O)c3ccc(=O)n(-c4c(F)cccc4F)n3)c(N3C[C@@H](C)[C@@H](N)C3)c12 [Example 218, N-(4-((3R,4R)-3-amino-4-methylpyrrolidin-1-yl)-7-fluoro-1-isopropyl-3-methyl-1H-indazol-5-yl)-1-(2,6-difluorophenyl)-6-oxo-1,6-dihydropyridazine-3-carboxamide]
CC(C)n1ncc2c(N3C[C@H]4CNC[C@H]4C3)c(NC(=O)c3ccc(=O)n(-c4c(F)cccc4F)n3)cc(F)c21 [Example 219, 1-(2,6-difluorophenyl)-N-(7-fluoro-4-((3aR,6aS)-hexahydropyrrolo[3,4-c]pyrrol-2(1H)-yl)-1-isopropyl-1H-indazol-5-yl)-6-oxo-1,6-dihydropyridazine-3-carboxamide]
CC(C)n1cc2c(N3CC[C@@](C)(N)C3)c(NC(=O)c3ccc(=O)n(-c4c(F)cccc4F)n3)ccc2n1 [Example 220, (R)—N-(4-(3-amino-3-methylpyrrolidin-1-yl)-2-isopropyl-2H-indazol-5-yl)-1-(2,6-difluorophenyl)-6-oxo-1,6-dihydropyridazine-3-carboxamide]
CC(C)n1cc2c(N3CC[C@@H](CN)C3)c(NC(=O)c3ccc(=O)n(-c4c(F)cccc4F)n3)cc(F)c2n1 [Example 221, (S)-N-(4-(3-(aminomethyl)pyrrolidin-1-yl)-7-fluoro-2-isopropyl-2H-indazol-5-yl)-1-(2,6-difluorophenyl)-6-oxo-1,6-dihydropyridazine-3-carboxamide]
CC(C)n1cc2c(N3CC[C@@H](N)C3)c(NC(=O)c3ccc(=O)n(-c4c(F)cccc4F)n3)cc(F)c2n1 [Example 222, (R)-N-(4-(3-aminopyrrolidin-1-yl)-7-fluoro-2-isopropyl-2H-indazol-5-yl)-1-(2,6-difluorophenyl)-6-oxo-1,6-dihydropyridazine-3-carboxamide]
CC(C)n1nc2c(F)cc(NC(=O)c3ccc(=O)n(-c4c(F)cccc4F)n3)c(N3CC[C@@H](N)C3)c2c1Cl [Example 223, (R)-N-(4-(3-aminopyrrolidin-1-yl)-3-chloro-7-fluoro-2-isopropyl-2H-indazol-5-yl)-1-(2,6-difluorophenyl)-6-oxo-1,6-dihydropyridazine-3-carboxamide]
CC(C)n1cc2c(N3C[C@@H](C)[C@@H](N)C3)c(NC(=O)c3ccc(=O)n(-c4c(F)cccc4F)n3)ccc2n1 [Example 224, N-(4-((3R,4R)-3-amino-4-methylpyrrolidin-1-yl)-2-isopropyl-2H-indazol-5-yl)-1-(2,6-difluorophenyl)-6-oxo-1,6-dihydropyridazine-3-carboxamide]
CC(C)n1cc2c(N3CCC[C@@H]3CN)c(NC(=O)c3ccc(=O)n(-c4c(F)cccc4F)n3)ccc2n1 [Example 225, (R)-N-(4-(2-(aminomethyl)pyrrolidin-1-yl)-2-isopropyl-2H-indazol-5-yl)-1-(2,6-difluorophenyl)-6-oxo-1,6-dihydropyridazine-3-carboxamide]
Cc1cc(NC(=O)c2ccc(=O)n(-c3c(F)cccc3F)n2)c(N2CC[C@@H](N)C2)c2cn(C(C)C)nc12 [Example 226, (R)-N-(4-(3-aminopyrrolidin-1-yl)-2-isopropyl-7-methyl-2H-indazol-5-yl)-1-(2,6-difluorophenyl)-6-oxo-1,6-dihydropyridazine-3-carboxamide]
CC(C)n1cc2c(N3C[C@H](N)C(C)(C)C3)c(NC(=O)c3ccc(=O)n(-c4c(F)cccc4F)n3)ccc2n1 [Example 227, (R)-N-(4-(4-amino-3,3-dimethylpyrrolidin-1-yl)-2-isopropyl-2H-indazol-5-yl)-1-(2,6-difluorophenyl)-6-oxo-1,6-dihydropyridazine-3-carboxamide]
CC(C)n1cc2c(N3C[C@@H](N)C(C)(C)C3)c(NC(=O)c3ccc(=O)n(-c4c(F)cccc4F)n3)ccc2n1 [Example 228, (S)-N-(4-(4-amino-3,3-dimethylpyrrolidin-1-yl)-2-isopropyl-2H-indazol-5-yl)-1-(2,6-difluorophenyl)-6-oxo-1,6-dihydropyridazine-3-carboxamide]
CC(C)n1cc2c(N3C[C@H](N)C4(CC4)C3)c(NC(=O)c3ccc(=O)n(-c4c(F)cccc4F)n3)ccc2n1 [Example 229]
CC(C)n1cc2c(N3CCC(N)CC3)c(NC(=O)c3ccc(=O)n(-c4c(F)cccc4F)n3)ccc2n1 [Example 230, N-(4-(4-aminopiperidin-1-yl)-2-isopropyl-2H-indazol-5-yl)-1-(2,6-difluorophenyl)-6-oxo-1,6-dihydropyridazine-3-carboxamide]
CC(C)n1cc2c(N3C[C@H](C)[C@@H](N)C3)c(NC(=O)c3ccc(=O)n(-c4c(F)cccc4F)n3)ccc2n1 [Example 231, N-(4-((3R,4S)-3-amino-4-methylpyrrolidin-1-yl)-2-isopropyl-2H-indazol-5-yl)-1-(2,6-difluorophenyl)-6-oxo-1,6-dihydropyridazine-3-carboxamide]
CC(C)n1cc2c(N3CCC[C@@H](N)C3)c(NC(=O)c3ccc(=O)n(-c4c(F)cccc4F)n3)ccc2n1 [Example 232, (R)-N-(4-(3-aminopiperidin-1-yl)-2-isopropyl-2H-indazol-5-yl)-1-(2,6-difluorophenyl)-6-oxo-1,6-dihydropyridazine-3-carboxamide]
CC(C)n1cc2c(N3C[C@@H]4C[C@H]3CN4)c(NC(=O)c3ccc(=O)n(-c4c(F)cccc4F)n3)cc(F)c2n1 [Example 233, N-(4-((1S,4S)-2,5-diazabicyclo[2.2.1]heptan-2-yl)-7-fluoro-2-isopropyl-2H-indazol-5-yl)-1-(2,6-difluorophenyl)-6-oxo-1,6-dihydropyridazine-3-carboxamide]
